In US11932630B2, “Heteroaryl aminopropanol derivatives” (NOVARTIS AG, priority 2021, dated 2024):

Legend:
[1] = Loss on drying by TGA after storage at 92 % RH; format: physicochemical; conditions: heating rate 10 K/min, % @ °C, temperature in the line below (100, 230, 170, 195 °C)
Description: Thermoaravimetric Analysis (TGA):
TGA curves were obtained using a TA-instrument Q5000. 0.5-2 mg of sample was placed into an open aluminum pan. The TGA curve was measured at 10° C./min between 30-300° C. The LoD (Loss of drying) was calculated between 30° C. and 100° C. or 150° C. The weight loss is plotted against the measured sample temperature. Temperatures are reported in degrees Celsius (° C.) and weight loss in %.

Hygroscopicity by DVS = format: physicochemical; conditions: for Hygroscopicity (DVS), moisture / water vapor absorbed: at 95% RH
human LTA4H = biological target: T1, human LTA4H (Homo sapiens, UniProt P09960); test: Human LTA4H enzyme assay (Arg-AMC substrate); format: biochemical; conditions: Arg-AMC 600 μM, 9 nM human LTA4H, 15 min pre-incubation; mean values of at least 3 measurements; read-out: ArgAMC IC50
T1 sequence (P09960 1-611): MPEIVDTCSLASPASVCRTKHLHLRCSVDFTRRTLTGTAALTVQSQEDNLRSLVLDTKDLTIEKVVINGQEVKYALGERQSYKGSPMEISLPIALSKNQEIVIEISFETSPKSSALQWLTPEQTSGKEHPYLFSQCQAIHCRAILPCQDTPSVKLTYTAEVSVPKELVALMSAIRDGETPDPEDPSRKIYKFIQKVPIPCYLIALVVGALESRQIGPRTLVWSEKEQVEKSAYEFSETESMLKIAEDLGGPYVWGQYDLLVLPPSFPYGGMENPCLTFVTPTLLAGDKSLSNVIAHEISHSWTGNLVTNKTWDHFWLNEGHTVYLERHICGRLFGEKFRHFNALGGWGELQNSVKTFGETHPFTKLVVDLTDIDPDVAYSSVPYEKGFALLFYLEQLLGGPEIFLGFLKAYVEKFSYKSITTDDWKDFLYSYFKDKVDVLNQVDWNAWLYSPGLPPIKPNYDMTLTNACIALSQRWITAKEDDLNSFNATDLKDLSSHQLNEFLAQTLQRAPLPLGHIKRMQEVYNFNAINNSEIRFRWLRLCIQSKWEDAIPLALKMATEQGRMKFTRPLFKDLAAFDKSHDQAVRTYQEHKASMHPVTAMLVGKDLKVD
Description: a) Human LTA4H Enzyme Assay:
[…] (LTA4H) catalyzes the vinylogous hydrolysis of the epoxide, leukotriene A4 (LTA4) into the pro-inflammatory mediator LTB4.
For compound testing, compounds are delivered as 10 mM stock solutions in 90% DMSO (10% water) in matrix tubes. […] A final substrate concentration of 600 μM, which is around the KM value of Arg-AMC, at a final enzyme concentration of 9 nM is chosen. Upon addition of the substrate, the plate is immediately placed in a fluorescence reader and the fluorescence is measured every 10 minutes for 60 minutes using the filter setting λ excitation=380 nm and A emission=460 nm. […] Raw data is converted to rate (moles per minute) using the AMC calibration curve calculated from the AMC standards. The data is analyzed in GraphPad Prism (GraphPad software Inc.) using non-linear regression to determine IC50 values of LTA4H inhibitors.

[2] = test system: LTB4 biosynthesis in human whole blood; test: Human whole blood assay (hWB), inhibition of LTB4 biosynthesis; format: cell-based; conditions: human blood diluted 1:3, 4 hours with compound, 10 μg/ml A23187 for 15 min, eicosanoid by ELISA; read-out: hWB IC50
Description: b) Human Whole Blood Assay:
Compounds are tested in a human whole blood assay (hWB) to test their ability to inhibit LTB4 biosynthesis in a human cellular system. To this end, fresh blood is collected in heparinized vacutainers by venipuncture from volunteers. Blood is diluted 1:3 with RPM (Roswell Park Memorial Institute) medium and aliquots of 200 μL are transferred to 96-well round bottom cell culture plates. For compound testing, compounds are delivered as 10 mM stock solutions in 90% DMSO in matrix tubes. […] 4 μL of compound dilution or vehicle is added to 200 μL of blood and incubated for 4 hours at 37° C. in a humidified incubator. […] Incubation is terminated by centrifugation at 300 g for 10 min at 22° C. Plasma supernatant is taken and transferred to a 96 well plate for eicosanoid determination by ELISA (Assay designs) according to the manufacturer's protocol after 1:20 dilution in assay buffer. The data is analyzed in GraphPad Prism (GraphPad software Inc.) using non-linear regression to determine IC50 values of LTA4H inhibitors.

Row | IC50 (human LTA4H) | IC50 [2] | SMILES | also measured
1 | – | – | N[C@H](CO)Cn1ccc(-c2ccc(Oc3ncc(-c4cc[nH]n4)cc3F)cc2)n1 [Example 42, (S)-2-amino-3-(3-(4-((3-fluoro-5-(1H-pyrazol-3-yl)pyridin-2-yl)oxy)phenyl)-1H-pyrazol-1-yl)propan-1-ol] | Loss on drying by TGA, After 1 day at 92 % RH ([1]; listed as Ex 42): 2.46 @ %; Hygroscopicity (DVS), moisture reversibly absorbed (Hygroscopicity by DVS; above 70% RH, transforming into a hydrated form): 3%; Hygroscopicity (DVS), moisture / water vapor absorbed (Hygroscopicity by DVS): 2.97 @ 95%
2 | – | – | N[C@H](CO)Cn1ccc(-c2ccc(Oc3ncc(-c4ccn[nH]4)cc3F)cc2)n1 [Example 43, (S)-2-amino-3-(3-(4-((3-fluoro-5-(1H-pyrazol-5-yl)pyridin-2-yl)oxy)phenyl)-1H-pyrazol-1-yl)propan-1-ol] | Loss on drying by TGA, After 1 day at 92 % RH ([1]; listed as Ex 43): 0.30 @ %; Hygroscopicity (DVS), moisture / water vapor absorbed (Hygroscopicity by DVS; listed as hydrochloride salt (Form E)): 0.6%
3 | – | – | N[C@H](CO)Cn1ccc(-c2ccc(Oc3ncc(-c4ccn[nH]4)cc3F)cc2)n1 [Example 45, (S)-2-amino-3-(3-(4-((3-fluoro-5-(1H-pyrazol-5-yl)pyridin-2-yl)oxy)phenyl)-1H-pyrazol-1-yl)propan-1-ol] | Hygroscopicity (DVS), moisture / water vapor absorbed (Hygroscopicity by DVS; listed as Modification A): about 0.5%; Hygroscopicity (DVS), moisture / water vapor absorbed (Hygroscopicity by DVS; listed as hippurate salt (Form A)): 0.5%
4 | – | – | N[C@H](CO)Cn1ccc(-c2ccc(Oc3ncc(-c4cc[nH]n4)cc3F)cc2)n1 [Example 46, (S)-2-amino-3-(3-(4-((3-fluoro-5-(1H-pyrazol-3-yl)pyridin-2-yl)oxy)phenyl)-1H-pyrazol-1-yl)propan-1-ol] | Loss on drying by TGA, After 1 day at 92 % RH ([1]; listed as Ex 46): 0.96 @ %
5 | – | – | N[C@H](CO)Cn1ccc(-c2ccc(Oc3ncc(-c4ccn[nH]4)cc3F)cc2)n1 [Example 44, (S)-2-amino-3-(3-(4-((3-fluoro-5-(1H-pyrazol-3-yl)pyridin-2-yl)oxy)phenyl)-1H-pyrazol-1-yl)propan-1-ol] | Loss on drying by TGA, After 1 day at 92 % RH ([1]; listed as Ex 44): 0.21 @ %; Hygroscopicity (DVS), moisture / water vapor absorbed (Hygroscopicity by DVS): 0.32% @ 95% RH; Hygroscopicity (DVS), moisture / water vapor absorbed (Hygroscopicity by DVS; listed as hippuric acid salt (Form B)): about 0.3%
6 | 3.2 nM | 75 nM | N[C@H](CO)Cn1nnc(-c2ccc(Oc3ccc(-c4ccn[nH]4)cn3)cc2)n1 [Example 20, (S)-3-(5-(4-((5-(1H-pyrazol-3-yl)pyridin-2-yl)oxy)phenyl)-2H-tetrazol-2-yl)-2-aminopropan-1-ol] | –
7 | 2.2 nM | 63 nM | NC(CO)Cc1nnn(-c2ccc(Oc3ncc(Cl)cc3F)cc2)n1 (racemic) [Example 39, 2-Amino-3-(2-(4-((5-chloro-3-fluoropyridin-2-yl)oxy)phenyl)-2H-tetrazol-5-yl)propan-1-ol] | –
8 | 6.1 nM | 343 nM | CC(O)[C@@H](N)Cc1nc(-c2ccc(Oc3ncc(Br)cc3F)cc2)no1 (mixture of isomers) [Example 18, (3S)-3-amino-4-(3-(4-((5-bromo-3-fluoropyridin-2-yl)oxy)phenyl)-1,2,4-oxadiazol-5-yl)butan-2-ol] | –
9 | 3.1 nM | 123 nM | N[C@H](CO)Cn1ccc(-c2ccc(Oc3ncc(-c4ccn[nH]4)cc3F)cn2)n1 [Example 21, (S)-2-amino-3-(3-(5-((3-fluoro-5-(1H-pyrazol-5-yl)pyridin-2-yl)oxy)pyridin-2-yl)-1H-pyrazol-1-yl)propan-1-ol] | –
10 | 2.6 nM | 47 nM | N[C@H](CO)Cn1ccc(-c2ccc(Oc3ncc(-c4cc[nH]n4)cc3F)cc2)n1 [Example 37, (S)-2-amino-3-(3-(4-((3-fluoro-5-(1H-pyrazol-5-yl)pyridin-2-yl)oxy)phenyl)-1H-pyrazol-1-yl)propan-1-ol] | –
11 | 2.5 nM | 74 nM | N[C@H](CO)Cc1nc(-c2cccc(Oc3ccc(-c4ccn[nH]4)cn3)c2)no1 [Example 09, (S)-3-(3-(3-((5-(1H-pyrazol-5-yl)pyridin-2-yl)oxy)phenyl)-1,2,4-oxadiazol-5-yl)-2-aminopropan-1-ol] | –

Row | SMILES | IC50 (human LTA4H) | IC50 [2] | also measured
12 | N[C@@H](CO)Cn1nnc(-c2ccc(Oc3ccc(Cl)cn3)cc2)n1 [Example 31, (R)-2-Amino-3-(5-(4-((5-chloropyridin-2-yl)oxy)phenyl)-2H-tetrazol-2-yl)propan-1-ol] | 4.5 nM | 179 nM | –
